Paper PMC549046 (Comparative Hepatology, 2005)
pIC50, pKi: −log10 of the molar value. Where “and” joins values, the source holds several entries; their conditions need not be identical. Identical values can stand only once. Entries after “also recorded” stand apart in the source; their conditions may differ. Like-named read-outs stand apart in the source and are kept apart here. Marks after values point to notes of the source that are not given here.

Assays:
[1] = system: hepatic BFCOD activities; conditions: ref [13],[22]; read-out: IC50, hepatic BFCOD activity in killifish; cited from earlier work
[2] = system: vitellogenin; assay: Plasma vitellogenin analysis (ELISA); type: in vivo, Atlantic cod (Gadus morhua); conditions: i.p., 5 days; for Vitellogenin plasma level: mean (SD), n = 7–8
Procedure: (§1) Ethical approval licence number of ILAB Bergen: 119. Experiment no. 0204.
Plasma levels of vitellogenin protein were determined using a non-competitive sandwich ELISA kit and employing rabbit PAb against Atlantic cod vitellogenin from Biosense Laboratories AS (Bergen, Norway). Each plasma sample was diluted (1:20, 1:15,000 and 1:50,000) and 100 μl was analyzed and compared to purified Atlantic cod vitellogenin protein standards (ranging between 0.12 and 2,000 ng/ml). The signal was detected at A492 after 15 min incubation with substrate solution, using a VICTOR™ 1420 Multilabel Counter.

[3] = system: CYP3A; assay: CYP3A 2D gel electrophoresis immunoblot of pooled liver microsomes from treated fish; conditions: 2D gel immunoblot; pooled liver microsomes of 8–9 treated fish
Procedure: (§2) Hatchery reared juvenile Atlantic cod of both sexes with an average body weight (b.w.) around 400 g were supplied by Sekkingstad, Preserving AS, Hordaland, Norway. The fish were kept in 0.5 m^3 indoor glass fibre tanks, at Industrial Laboratory (ILAB), Bergen High Technology Centre (Bergen, Norway), provided with continuously flowing seawater at a temperature of 8 ± 0.5°C and a salinity of 3.4%. Throughout the experimental period, the fish were subjected to continuous 24 h artificial light (the regime the farm used for optimal fish growth). The fish were acclimated to these conditions for five days prior to the experimental period. […] Control fish were injected with 5 ml peanut oil/kg b.w. (vehicle). There were eight to nine fish in each treatment group. When designing the experiment, we could only test one combination due to limited fish numbers.
After five days exposure, the fish were sacrificed by a sharp blow to the head. Blood samples were collected from the dorsal vein using a heparinized syringe and the liver was quickly dissected out and placed in ice-cold homogenization buffer (0.1 M sodium phosphate buffer pH 7.4, containing 0.15 M KCl, 1 mM EDTA and 1 mM DTT). Liver microsomes were prepared according to the published protocol by Goksøyr, and stored at -80°C. Total microsomal protein content was measured according to a published method by Bradford, using bovine serum albumin as standard, and a SpectraFluor spectrophotometer from Tecan (Grödig/Salzburg, Austria). Blood plasma was isolated by centrifugation at 5,000 g for 10 min at room temperature and stored at -80°C. Ethical approval licence number of ILAB Bergen: 119. Experiment no. 0204.

[4] = system: CYP3A; assay: In vitro pre-incubation of liver microsomes followed by CYP3A western blot; conditions: pooled cod liver microsomes pre-incubated 10, 30, 60 min
Procedure: The CYP3A western blot analysis was performed as described above.

[5] = system: Hepatic Microsomal CYP3A activity; assay: In vitro inhibition of CYP3A-mediated BFCOD activity in pooled liver microsomes
Procedure: (§3) For in vitro inhibition studies, feral Atlantic cod of both sexes were caught off the West coast of Sweden and placed in concrete basins provided with recirculating aerated seawater at 10 ± 2°C and a salinity of 3.0% and alternative light/dark photoperiods of 12 hours. Prior to sampling, the animals were starved and acclimated to these conditions for three weeks. Eight fish were injected i.p. with β-naphthoflavone (BNF), 50 mg/kg b.w. dissolved in peanut oil (5.0 mg/ml). The fish were placed in a 100 l glass aquarium provided with aerated seawater (above) and 30% of the water volume was replaced each day. To eliminate visual stress, the sides of the aquaria were covered with black plastic sheets. After 3 days exposure, the fish were sacrificed. Livers were quickly dissected out and placed in ice-cold homogenization buffer. Livers were pooled from twenty untreated Atlantic cod and from eight BNF treated Atlantic cod, respectively. Microsomal fractions were isolated (above) and stored in aliquots at -80°C. Ethical approval from the Ethical committee of Göteborg license number (99–2003).
(§4) The CYP1A activity was determined as EROD activity, using resorufin as standard in a SpectraFluor plate reader according to the protocol provided by Nilsen et al.. The CYP3A catalytic activity was measured as BFCOD activity, using HFC as standard. The BFC assay was performed based on a published protocol by Miller et al. and optimized for rainbow trout liver microsomes (T. Hegelund and M. Celander, unpublished data). The reaction mixture consisted of 200 μM BFC, bovine serum albumin (1.6 mg/ml), 2 μM NADPH and 10 μl liver microsomes in a total volume of 200 μl in 0.2 M potassium phosphate buffer pH 7.4 in a 96-multiwell plate using a VICTOR™ 1420 Multilabel Counter from Wallac Sverige AB (Upplands Väsby, Sweden).
(§5) In vitro inhibition studies were carried out in 96-multiwell plates using a VICTOR™ 1420 Multilabel Counter. […] The substances were dissolved in DMSO and diluted with ethanol. The final concentrations never exceeded 0.01% (v/v) DMSO and 0.001% ethanol (v/v). For CYP1A and CYP3A inhibition studies, pooled liver microsomes from BNF-treated and from untreated Atlantic cod, respectively, were used.

[6] = system: CYP3A; assay: as above; conditions: both, Atlantic cod (Gadus morhua), microsomes, pH 7.4
Procedure: as §3, §4, §5

[7] = system: CYP3A; assay: In vivo hepatic CYP3A protein expression (western blot); conditions: i.p., 5 days, KC 12, NP 25, KC+NP 12+25 mg/kg
Procedure: as §2, with “There were eight to nine fish in each treatment group. When designing the experiment, we could only test one combination due to limited fish numbers.” left out
(§6) After five days exposure, the fish were sacrificed by a sharp blow to the head. […] Total microsomal protein content was measured according to a published method by Bradford, using bovine serum albumin as standard, and a SpectraFluor spectrophotometer from Tecan (Grödig/Salzburg, Austria). […]
(§7) Western blot analyses of 40 μg hepatic microsomal protein were carried out using enhanced chemoluminescence (ECL), based on the protocol previously described and PAb raised against rainbow trout CYP1A and CYP3A [41, 55, 56]. The intensity of each protein band was determined by densitometry on scanned fluorograms using Labview 7.0 from National Instruments (Austin, TX, USA).

[8] = system: hepatic BFCOD activities; conditions: ref [13],[22]; read-out: IC50, hepatic BFCOD activity in rainbow trout; cited from earlier work
[9] = system: Hepatic Microsomal CYP3A activity; set-up: method as in PMID 15084407; conditions: pooled cod liver microsomes; substrate BFC; published earlier, ref [22]; read-out: IC50, hepatic microsomal CYP3A (BFCOD) activity; cited from earlier work
[10] = system: 11-keto-testosterone; assay: Plasma 11-keto-testosterone analysis (EIA); type: in vivo, Atlantic cod (Gadus morhua); conditions: i.p., 5 days; for 11-Keto-Testosterone plasma level: mean (SD), n = 6–8
Procedure: as §1
(§8) Plasma levels of 17β-estradiol and testosterone were determined using competitive EIA kits from Cayman Chemical (Ann Arbor, MI, USA). Plasma levels of 11-keto-testosterone were analyzed using a competitive EIA kit, from Biosense Laboratories AS (Bergen, Norway). Plasma from each fish was concentrated (2:1) by extraction once with six volumes diethyl ether and 50 μl was analyzed and compared to purified standard substances. The signals were detected at A405 after 40 min (17β-estradiol), 60 min (testosterone) or 80 min (11-keto-testosterone) incubation with substrate solution, using a VICTOR™ 1420 Multilabel Counter.

[11] = system: 17β-estradiol; assay: Plasma 17β-estradiol analysis (EIA); type: in vivo, Atlantic cod (Gadus morhua); conditions: i.p., 5 days; for 17β-Estradiol plasma level: mean (SD), n = 8
Procedure: as §1, §8

[12] = system: CYP1A; assay: In vivo hepatic CYP1A enzyme (EROD) activity after i.p. exposure; conditions: 5 days, NP 25 mg/kg, ethynylestradiol 5 mg/kg
Procedure: as §2, §6
The CYP1A activity was determined as EROD activity, using resorufin as standard in a SpectraFluor plate reader according to the protocol provided by Nilsen et al.. The CYP3A catalytic activity was measured as BFCOD activity, using HFC as standard. […]

[13] = biological target: T1, CYP1A (Gadus morhua, UniProt A0ACE1MZ74); assay: In vitro inhibition of CYP1A-mediated EROD activity in pooled liver microsomes; conditions: both, Atlantic cod (Gadus morhua)
T1 sequence (A0ACE1MZ74 1-519): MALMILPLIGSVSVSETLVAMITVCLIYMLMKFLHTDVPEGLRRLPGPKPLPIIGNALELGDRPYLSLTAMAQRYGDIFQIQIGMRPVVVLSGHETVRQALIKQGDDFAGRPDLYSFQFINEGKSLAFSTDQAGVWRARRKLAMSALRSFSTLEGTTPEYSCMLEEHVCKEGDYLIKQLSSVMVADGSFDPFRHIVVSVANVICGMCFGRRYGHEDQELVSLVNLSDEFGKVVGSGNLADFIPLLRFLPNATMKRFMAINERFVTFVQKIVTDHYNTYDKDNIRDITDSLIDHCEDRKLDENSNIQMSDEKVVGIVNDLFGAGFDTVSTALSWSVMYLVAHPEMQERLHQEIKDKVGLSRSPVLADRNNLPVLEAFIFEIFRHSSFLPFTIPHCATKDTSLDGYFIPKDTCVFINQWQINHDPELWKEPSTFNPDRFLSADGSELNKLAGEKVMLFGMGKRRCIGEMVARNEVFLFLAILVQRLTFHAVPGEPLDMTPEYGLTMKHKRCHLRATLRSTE
Procedure: as §3, §4, §5

[14] = biological target: T2, Hepatic Microsomal CYP1A activity (Gadus morhua, UniProt A0ACE1MZ74); assay: as above; conditions: for Type of inhibition of CYP1A (EROD) activity: cod liver microsomes, Dixon plots
T2 sequence (A0ACE1MZ74 1-519): T1 sequence (A0ACE1MZ74 1-519)
Procedure: as §3, §4, §5

[15] = system: CYP1A; assay: In vivo hepatic CYP1A protein expression (western blot); conditions: i.p., 5 days, NP 25 mg/kg, ethynylestradiol 5 mg/kg
Procedure: as §2, with “There were eight to nine fish in each treatment group. When designing the experiment, we could only test one combination due to limited fish numbers.” left out
as §6, §7

[16] = biological target: T3, cDNA Expressed Human CYP3A4 (Homo sapiens, UniProt P08684); assay: Inhibition of BFCOD activity in cDNA expressed human CYP3A4 baculovirus supersomes; type: biochemical; conditions: substrate BFC
T3 construct: purchased BD Biosciences Company, Gentest (Woburn, MA, USA); host or cells: baculovirus expression system (supersomes)
T3 sequence (P08684 whole entry): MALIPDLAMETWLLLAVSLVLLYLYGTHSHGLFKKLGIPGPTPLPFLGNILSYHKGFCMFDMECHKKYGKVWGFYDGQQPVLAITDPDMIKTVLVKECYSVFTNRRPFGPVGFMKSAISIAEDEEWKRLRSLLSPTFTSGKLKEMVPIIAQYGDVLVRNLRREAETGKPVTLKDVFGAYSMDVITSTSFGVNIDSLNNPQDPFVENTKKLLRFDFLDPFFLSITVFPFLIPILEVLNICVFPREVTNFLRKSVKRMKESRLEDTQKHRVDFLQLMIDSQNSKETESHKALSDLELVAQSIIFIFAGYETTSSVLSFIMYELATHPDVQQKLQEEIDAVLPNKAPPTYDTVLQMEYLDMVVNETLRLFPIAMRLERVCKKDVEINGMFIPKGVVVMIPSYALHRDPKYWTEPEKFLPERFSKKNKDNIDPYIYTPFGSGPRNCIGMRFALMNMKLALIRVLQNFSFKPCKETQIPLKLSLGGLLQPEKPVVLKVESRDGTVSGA

[17] = compared to vehicle or single compounds, in words

In the case of CC(=O)N1CCN(c2ccc(OCC3COC(Cn4ccnc4)(c4ccc(Cl)cc4Cl)O3)cc2)CC1 (stereo not drawn) [ketoconazole], the pIC50 [1] is given as 8.00, the Vitellogenin plasma level [2] is given as 0.6 (0.9) μg/ml plasma and the “Induction of the more basic CYP3A-immunoreactive isoform (pI around 5.1)” value [3] is given as “inducible; also recorded: induced”. For the same molecule, the “Effect of pre-incubation on hepatic microsomal CYP3A protein levels” value [4] was “no effects”, the “Type of inhibition of CYP3A (BFCOD) activity” value ([5]; cod liver microsomes, Dixon plots) was “non-competitive inhibitor” and the “Ki, hepatic microsomal CYP3A (BFCOD) activity” value ([5]; no [S] level stated, Dixon plot) was “sub-μM range”. For the same molecule, the pKi [6] was […], the “Effect on CYP3A protein expression” value [7] was “no effect” and the pIC50 [8] was 7.00. For the same molecule, the pIC50 [9] was 6.52, the 11-Keto-Testosterone plasma level [10] was 71 (46) pg/ml plasma and the 17β-Estradiol plasma level [11] was 60 (26) pg/ml plasma.

With CCCCCCCCCc1ccc(O)cc1 [nonylphenol, 4-nonylphenol] the “Effect on plasma vitellogenin” value ([2]; in words) was “induction”, the Vitellogenin plasma level [2] was 266 (199) ^a μg/ml plasma and the “Decrease in CYP1A (EROD) activity compared to fish exposed to ketoconazole + nonylphenol” value [12] was 65%. For the same molecule, the “Reduction of CYP1A (EROD) activity compared to vehicle treated fish” value [12] was 41% and 40%, the “Induction of the more basic CYP3A-immunoreactive isoform (pI around 5.1)” value [3] was “did not induce” and the pIC50 [13] was 5.28. The pKi ([13]; Ki, hepatic microsomal CYP1A (EROD) activity, no [S] level stated, Dixon plot) was roughly 5.46, the “Type of inhibition of CYP1A (EROD) activity” value [14] was “non-competitively inhibited” and the “Type of inhibition of CYP1A (EROD) activity” value ([14]; listed as Nonylphenol) was “non-competitive inhibitor”. For the same molecule, the pKi ([14]; read-out: Ki, hepatic microsomal CYP1A (EROD) activity, no [S] level stated, Dixon plot, listed as Nonylphenol (NP)) was 5.46, the pIC50 [6] was 3.80 and the “Effect on CYP3A protein expression” value [7] was “no effect”. For the same molecule, the “Effect on CYP1A protein expression” value [15] was “no effect”, the pIC50 [16] was 4.46 and the “Effect on 11-keto-testosterone plasma levels” value [10, 17] was “no statistically significant effect”. For the same molecule, the 11-Keto-Testosterone plasma level [10] was 42 (67) pg/ml plasma, the “Effect on 17β-estradiol plasma levels” value [11, 17] was “no statistically significant effect” and the 17β-Estradiol plasma level [11] was 76 (52) pg/ml plasma.
